≈ marks a conversion by molar mass, not a printed value. Where a name gives a salt, the structure may show the parent alone.
Tests used:
[1] = test system: S. mutans bacteriocin production against S. mitis; assay: Bacteriocin overlay assay, S. mutans spotted on S. mitis; type: cell-based, Streptococcus mutans; settings: analog 20 μM with CSP1 20 μM, 16 h, p < 0.05 vs CSP1
Method: (§1) During the formation of complex biofilm such as dental plaque, the ability of S. mutans to compete with other commensal species determines the success of the cariogenesis process. S. mutans uses antibacterial peptides, namely, bacteriocins, to overcome and subvert the composition of dental microbiota. We investigated the production of bacteriocins using the overlay assay. Overnight cultures of S. mitis, S. oralis, S. sanguinis, P. aeruginosa, F. nucleatum, or P. gingivalis were diluted 1:100 in BHI or TS broth and incubated at 37 °C until they reached an OD620 of 0.3. Cultures were added with agar (BD Difco^TM Agar) at the final concentration of 1.5% w/v and transferred in plates. Overnight cultures of S. mutans were diluted 1:100 in BHI and added with peptides (20 μM) or the vehicle with or without CSP1. Culture media were supplemented with agar to reach the final concentration of 0.7% w/v. The solutions were spotted on the surface of agar plates prepared as described above. The plates were kept on the benchtop for 30 min, allowing the agar containing S. mutans to solidify, and then incubated at 37 °C for 16 h under microaerophilic or anaerobic conditions, as required.
(§2) Spots (10 for each experimental group) were acquired and analyzed using NIH Image J software (version 1.53t August 2022, https://imagej.nih.gov/ij/index.html; accessed on 7 September 2022). The appearance of a clear area on the plate (bacterial growth inhibition) was evaluated as indicative of bacteriocin activity. The diameters of the area were measured in a blinded fashion.

[2] = test system: comE gene; assay: qRT-PCR, comE gene expression; type: cell-based, Streptococcus mutans; settings: analog 20 μM with CSP1 20 μM, planktonic, 8 h, qPCR
Method: (§3) S. mutans was cultured in BHI supplemented with peptides or the vehicle. Cultures were centrifuged, and total RNA was isolated and purified from the bacterial pellets using the GRS Total RNA Kit—Bacteria (GK16.0100; GRISP Research Solution, Porto, Portugal), following the manufacturer’s instructions. Purified RNA was subjected to DNase I treatment to remove contaminating DNA. The RNA yield and purity were assessed by measuring the absorbance, and only samples with a ratio of 260/280 nm in the 1.8–2 range were used. cDNA was generated using the cDNA RT kit with an RNAse inhibitor (Applied Biosystems; Monza, Milan). Quantitative PCR (qRT-PCR) was performed using SYBR green mixture (iScript One Step RT-PCR kit; Bio-Rad, Segrate, Milan) to determine the transcript levels of genes using the oligonucleotides listed in Table 3. The gyrA gene served as the housekeeping gene.

[3] = test system: P. aeruginosa; assay: microbe, parasite or virus in culture; type: cell-based, Pseudomonas aeruginosa; settings: 16 h; for Minimum inhibitory concentration (MIC), P. aeruginosa: peptides 0–50 μM, 37 °C, aerobic, A620 nm, three separate experiments
Description: (§4) Streptococcus mutans Clarke (strain designation NCTC 10449), Pseudomonas aeruginosa (Schroeter) Migula (strain designation PAO1), Fusobacterium nucleatum, subspecies nucleatum (strain VPI 4355), and Porphyromonas gingivalis (strain 2561) were purchased from ATCC (LGC Standards Srl, Milan, Italy). Streptococcus mitis, Streptococcus oralis, and Streptococcus sanguinis were obtained from clinical isolates and characterized by morphological, biochemical, and molecular typing. S. mutans, S. mitis, S. oralis, and S. sanguinis were maintained in Brain Heart Infusion (BHI) broth or agar under microaerophilic conditions. P. aeruginosa was maintained in trypticase soy (TS) agar or broth. F. nucleatum was maintained in TS agar or broth with defibrinated sheep blood under anaerobic conditions. P. gingivalis was maintained in ATCC Medium 2722 supplemented with TS broth or agar under anaerobic conditions. Before the experiments, bacterial cultures were inoculated in fresh media (dilution 1:100) and grown for 16 h at 37 °C.
(§5) The antimicrobial activities of the tested peptides were assessed through the determination of the minimum inhibitory concentration (MIC) standardized by the Clinical and Laboratory Standards Institute. Bacterial inocula were diluted in 10 mL of MHB […]. The concentration of the bacteria was adjusted to 0.5 McFarland standard, and the bacteria were dispensed in 96-well microtiter plates (final bacterial concentration: 1 × 10^4 CFU/well). Peptides were dissolved in sterile water (stock concentration: 2 mM) and added at final concentrations ranging from 0 to 50 µM. Plates were incubated at 37 °C for 16 h. At the end of incubation, bacterial growth was recorded using a microplate reader (Varioskan Lux Reader; Thermo Fisher Scientific, Milan, Italy) by quantifying the adsorption at 620 nm. Cultures were then opportunely diluted and seeded on agar plates. Bacterial cultures inoculated with the highest final concentration of the vehicle (sterile water) or chlorhexidine hydrochloride salt (CHX, concentration range: 0.05 to 500 μg/mL; Merck, Milan, Italy) were included as controls in each test. Experiments were performed in triplicate.

[4] = test system: S. mitis; assay: microbe, parasite or virus in culture; type: cell-based, Streptococcus mitis; settings: for Minimum inhibitory concentration (MIC), S. mitis: peptides 0–50 μM, 37 °C, microaerophilic, A620 nm, three separate experiments
Description: as §4, §5

[5] = test system: S. oralis; assay: microbe, parasite or virus in culture; type: cell-based, Streptococcus oralis; settings: for Minimum inhibitory concentration (MIC), S. oralis: peptides 0–50 μM, 37 °C, microaerophilic, A620 nm, three separate experiments
Description: as §4, §5

[6] = test system: bip gene; assay: qRT-PCR, bip gene expression; type: cell-based, Streptococcus mutans; settings: analog 20 μM with CSP1 20 μM, 8 h, qPCR, p < 0.05 vs CSP1
Method: as §3

[7] = test system: comD gene; assay: qRT-PCR, comD gene expression; type: cell-based, Streptococcus mutans; settings: analog 20 μM with CSP1 20 μM, planktonic, 8 h, qPCR
Method: as §3

[8] = test system: P. gingivalis; assay: microbe, parasite or virus in culture; type: cell-based, Porphyromonas gingivalis; settings: 16 h; for Minimum inhibitory concentration (MIC), P. gingivalis: peptides 0–50 μM, 37 °C, anaerobic, A620 nm, three separate experiments
Description: as §4, §5

[9] = test system: S. mutans bacteriocin production against S. oralis; assay: Bacteriocin overlay assay, S. mutans spotted on S. oralis; type: cell-based, Streptococcus mutans; settings: analog 20 μM with CSP1 20 μM, 16 h, p < 0.05 vs CSP1
Method: as §1, §2

[10] = test system: S. mutans bacteriocin production against S. sanguinis; assay: Bacteriocin overlay assay, S. mutans spotted on S. sanguinis; type: cell-based, Streptococcus mutans; settings: analog 20 μM with CSP1 20 μM, 16 h, p < 0.05 vs CSP1
Method: as §1, §2

[11] = test system: F. nucleatum; assay: microbe, parasite or virus in culture; type: cell-based, Fusobacterium nucleatum; settings: 16 h; for Minimum inhibitory concentration (MIC), F. nucleatum: peptides 0–50 μM, 37 °C, anaerobic, A620 nm, three separate experiments
Description: as §4, §5

[12] = test system: S. sanguinis; assay: microbe, parasite or virus in culture; type: cell-based, Streptococcus sanguinis; settings: for Minimum inhibitory concentration (MIC), S. sanguinis: peptides 0–50 μM, 37 °C, microaerophilic, A620 nm, three separate experiments
Description: as §4, §5

[13] = test system: S. mutans; assay: microbe, parasite or virus in culture; type: cell-based, Streptococcus mutans; settings: for Minimum inhibitory concentration (MIC), S. mutans: peptides 0–50 μM, 37 °C, microaerophilic, A620 nm, three separate experiments
Description: as §4, §5

[14] = test system: S. mutans mature biofilm; assay: Mature biofilm (crystal violet); type: cell-based, Streptococcus mutans; settings: CHX 0.63 μg/mL added at 48 h, biofilm assessed 24 h later
Method: (§6) Overnight cultures of S. mutans were diluted 1:1000 in a 1:10 solution of BHI broth supplemented with 0.2% w/v sucrose and artificial saliva (AS; 1.3 g/L KCl, 0.1 g/L NaCl, 0.05 g/L MgCl, 0.1 g/L CaCl2, 0.5 g/L peptone, 25 μg/L NaF, 27 mg/L KH2PO4, 35 mg/L K2HPO4, pH 6.8; all reagents purchased from Merck). Cultures were seeded into 96-well polystyrene microtiter plates (200 µL/well) and incubated at 37 °C under static conditions. To identify the time of incubation that is useful in obtaining a mature biofilm, plates were incubated for 16, 24, 48, 72, or 96 h. Half of the media was renewed every 24 h. At the end of incubations, the wells were emptied and washed three times with sterile PBS to remove planktonic cells. Adhering cells were incubated with resazurin 0.01% in the dark at 37 °C for 20 min [30]. In metabolically active cells, the non-fluorescent resazurin was reduced to highly fluorescent resorufin by dehydrogenase enzymes. The relative fluorescence units (RFU) of resorufin were measured using a fluorimeter (Ex = 530–570 nm, Em = 590–620 nm; Varioskan Lux Reader; Thermo Fisher Scientific).
(§7) To assess the effect of the compounds on biofilm formation or mature biofilm, cultures of S. mutans were prepared as described above. […] The optical density was measured at 570 nm using a microplate reader (Varioskan Lux Reader; Thermo Fisher Scientific). […]

[15] = test system: S. mutans biofilm formation; assay: Biofilm formation (crystal violet); type: cell-based, Streptococcus mutans; settings: CHX 0.63 μg/mL, 72 h, stimuli renewed every 24 h
Method: as §6, §7

[16] = CHX, microdilution method and colony counting assay

Row | SMILES | Effect on the CSP1-induced antibacterial effects against S. mitis [1] | Effect on the expression of comE induced by CSP1 [2] | Minimum inhibitory concentration (MIC), P. aeruginosa [3] [µM] | Minimum inhibitory concentration (MIC), S. mitis ([4]; 16 h) [µM] | Minimum inhibitory concentration (MIC), S. oralis ([5]; 16 h) [µM] | Effect on the CSP1-induced expression of bip [6] | Effect on the expression of comD induced by CSP1 [7] | Minimum inhibitory concentration (MIC), P. gingivalis [8] [µM] | Effect on the CSP1-induced antibacterial effects against S. oralis [9] | Effect on the CSP1-induced antibacterial effects against S. sanguinis [10] | Minimum inhibitory concentration (MIC), F. nucleatum [11] [µM] | Minimum inhibitory concentration (MIC), S. sanguinis ([12]; 16 h) [µM] | Minimum inhibitory concentration (MIC), S. mutans ([13]; 16 h) [µM] | also measured
1 | CC[C@H](C)[C@H](NC(=O)[C@H](Cc1ccccc1)NC(=O)[C@H](CC(=O)O)NC(=O)[C@H](CCCNC(=N)N)NC(=O)[C@H](Cc1ccccc1)NC(=O)[C@H](Cc1ccccc1)NC(=O)[C@H](CCCCN)NC(=O)[C@H](CO)NC(=O)[C@H](CC(C)C)NC(=O)[C@H](CCCNC(=N)N)NC(=O)[C@H](CCSC)NC(=O)[C@H](CCC(=O)O)NC(C)=O)C(=O)N[C@@H](CC(C)C)C(=O)N[C@@H](CCC(N)=O)C(=O)N[C@@H](CCCNC(=N)N)C(=O)N[C@@H](CCCCN)C(=O)N[C@@H](CCCCN)C(=O)O [AcCSP1] | significantly reduced | inhibited the expression | >50 | 24 (≈ 54.8 µg/mL) | 21 (≈ 48 µg/mL) | significantly reduced | inhibited the expression | >50 | significantly reduced | significantly reduced | >50 | 27 (≈ 61.7 µg/mL) | 20 (≈ 45.7 µg/mL) | 
2 | CC[C@H](C)[C@H](NC(=O)[C@H](Cc1ccccc1)NC(=O)[C@H](CC(=O)O)NC(=O)[C@H](CCCNC(=N)N)NC(=O)[C@H](Cc1ccccc1)NC(=O)[C@H](Cc1ccccc1)NC(=O)[C@H](CCCCNC(C)=O)NC(=O)[C@H](CO)NC(=O)[C@H](CC(C)C)NC(=O)[C@H](CCCNC(=N)N)NC(=O)[C@H](CCSC)NC(=O)[C@H](CCC(=O)O)NC(C)=O)C(=O)N[C@@H](CC(C)C)C(=O)N[C@@H](CCC(N)=O)C(=O)N[C@@H](CCCNC(=N)N)C(=O)N[C@@H](CCCCNC(C)=O)C(=O)N[C@@H](CCCCNC(C)=O)C(=O)O [Ac4CSP1] | significantly reduced | inhibited the expression | >50 | 28 (≈ 67.5 µg/mL) | 23 (≈ 55.5 µg/mL) | significantly reduced | inhibited the expression | >50 | significantly reduced | significantly reduced | >50 | 25 (≈ 60.3 µg/mL) | 26 (≈ 62.7 µg/mL) | 
3 | [H]/N=C(\N/C(=N/[H])NCCCCCCNC(=N)NC(=N)Nc1ccc(Cl)cc1)Nc1ccc(Cl)cc1 [CHX, chlorhexidine hydrochloride salt] |  |  |  |  |  |  |  |  |  |  |  |  |  | Reduction of mature biofilm vs. vehicle [14]: 54%; MIC ([3]; Pseudomonas aeruginosa, read-out: Minimum inhibitory concentration (MIC), P. aeruginosa): 1.68 mg/L; Concentration inducing bactericidal activity, S. mitis [4, 16]: below 1 μg/mL; MIC ([4]; Streptococcus mitis, 16 h, read-out: Minimum inhibitory concentration (MIC), S. mitis): 0.5 mg/L; Concentration inducing bactericidal activity, S. oralis [5, 16]: below 1 μg/mL; MIC ([5]; Streptococcus oralis, 16 h, read-out: Minimum inhibitory concentration (MIC), S. oralis): 0.57 mg/L; MIC ([8]; Porphyromonas gingivalis, read-out: Minimum inhibitory concentration (MIC), P. gingivalis): 254 mg/L; Reduction of biofilm formation vs. vehicle [15]: 70%; MIC ([11]; Fusobacterium nucleatum, read-out: Minimum inhibitory concentration (MIC), F. nucleatum): 300 mg/L; Concentration inducing bactericidal activity, S. sanguinis [12, 16]: below 1 μg/mL; MIC ([12]; Streptococcus sanguinis, 16 h, read-out: Minimum inhibitory concentration (MIC), S. sanguinis): 0.69 mg/L; Concentration inducing bactericidal activity, S. mutans [13, 16]: below 1 μg/mL; MIC ([13]; Streptococcus mutans, 16 h, read-out: Minimum inhibitory concentration (MIC), S. mutans): 0.63 mg/L

From article PMC9785397, “Exploiting Conserved Quorum Sensing Signals in Streptococcus mutans and Streptococcus pneumoniae” (Microorganisms, 2022)
